Data as given in PubChem BioAssay (NCI).
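Briefly, cells in 96-well plates were exposed to five compound concentrations for 48 h, and endpoints were estimated by linear interpolation. GI50 is the concentration that inhibits growth by half. TGI: concentration producing complete growth inhibition.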 Where a SMILES comes first, the peptide text is derived from it. [ ]: non-standard residue; d: D form. pGlu = O=C1CC[CH](C(=O)O)N1

How the values were obtained:
Experiment in all cases: growth of human tumour cells (NCI), 48 h
[1] = system: EKVX NSCLC
[2] = system: HCT-116 colon
[3] = system: HL-60(TB) leukemia
[4] = system: HOP-62 NSCLC
[5] = system: KM12 colon
[6] = system: NCI-H460 lung
[7] = system: NCI-H522 lung
[8] = system: SK-MEL-5 melanoma
[9] = system: SK-OV-3 ovarian
[10] = system: SN12C renal

SMILES | GI50 [1] [µM] | TGI [1] [µM] | GI50 [2] [µM] | TGI [2] [µM] | GI50 [3] [µM] | TGI [3] [µM] | GI50 [4] [µM] | TGI [4] [µM] | GI50 [5] [µM] | TGI [5] [µM] | GI50 [6] [µM] | TGI [6] [µM] | GI50 [7] [µM] | TGI [7] [µM] | GI50 [8] [µM] | TGI [8] [µM] | GI50 [9] [µM] | TGI [9] [µM] | GI50 [10] [µM] | TGI [10] [µM]
O=C1C(Cl)=C(Nc2cccc(Cl)c2)C(=O)N1Cc1ccc(Cl)cc1 | 6.78 | 23.7 | 0.442 | 6.53 | 1.65 | 15.7 | 1.53 | 13.9 | 2.83 | 14.2 | 0.538 | 15.7 | 0.916 | 8.21 | 0.66 | 4.32 | 6.34 | 24.6 | 1.24 | 5.93
CCNC(=O)C1CCCN1C(=O)C(CCCN=C(N)N)NC(=O)C(CC(C)C)NC(=O)C(CC(C)C)NC(=O)C(Cc1ccc(O)cc1)NC(=O)C(CO)NC(=O)C(Cc1c[nH]c2ccccc12)NC(=O)C(Cc1cnc[nH]1)NC(=O)C1CCC(=O)N1 (stereo not given) ([pGlu]HWSYLLRP-NHEt; configuration not given here) | > 100 | > 100 | > 100 | > 100 | > 100 | > 100 | > 100 | > 100 | > 100 | > 100 | > 100 | > 100 | > 100 | > 100 | > 100 | > 100 | > 100 | > 100 | > 100 | > 100
O=C(COc1ccc(Cl)cc1)N1N=C(c2ccc(Cl)cc2)CC1(O)c1ccccc1 (stereo not given) |  | 91.4 |  | 26.3 |  | 28 |  | 57 |  | 31.4 |  | 35.7 |  | 50.2 |  | 29.3 |  | > 63.6 |  | 11.4
Oc1c(-c2nnc(-c3ccccc3Cl)o2)sc2nnc(-c3ccccc3)c(-c3ccccc3)c12 | 3.1 | 32.2 | 2.92 | 11.4 | 4.16 | > 100 | 4.99 | > 100 | 4.36 | 51.3 | 1.73 | 15.3 | 3.59 | 23.5 | 5.99 | 19.8 | 5.14 | > 100 | 4.29 | 90.5
C/C=C(\C)C(=O)NC1=CC[C@@]2(C)C(=CCC3C2CC[C@@]2(C)C3CC[C@@H]2C(C)N(C)C)C1=O (stereo not given in full) | 3.17 | 51.8 | 1.41 | 3.1 | 1.42 | 5.2 | 2.08 | 5.51 | 2.85 | 13.7 | 2.06 | 4.98 | 7.79 | 24 | 1.39 | 2.95 | 11.6 | 29.8 | 4.47 | 22.3
O=C(O)CN(CC(=O)O)Cc1cc(C#Cc2ccc(C#Cc3ccccc3)cc2)cc(CN(CC(=O)O)CC(=O)O)n1 |  | > 86.8 |  | 39.9 |  | > 56.7 |  | 71 |  | > 92 |  | 66.2 |  | 52 |  | > 71.5 |  | > 100 |  | > 100
O=C(CCCCCCNC(=O)c1cnc(N(c2ccccc2)c2ccccc2)nc1)NO | 4.95 | > 100 | 2.07 | > 33.9 | 3.53 | > 62.3 | 3.46 | 28.1 | 3.26 | 21.7 | 2.75 | > 100 | 0.786 | 5.66 | 1.82 | 5.48 | 3.25 | 23.8 | 3.85 | 62.4
CC(=O)NC1C(OC[C@@H](CC(=O)N[C@@H](CC(=O)O)CC(=O)N[C@H](CC(=O)N[C@@H](CCCN)CC(=O)N[C@@H](CCCN)CC(=O)N[C@H](CC(N)=O)C(C)C)C(C)C)NC(=O)C[C@@H](N)C(C)C)OC(CO)C(O)C1O (stereo not given in full) | > 100 | > 100 | > 100 | > 100 | > 100 | > 100 | > 100 | > 100 | > 100 | > 100 | > 100 | > 100 | > 100 | > 100 | > 100 | > 100 | > 100 | > 100 | > 100 | > 100
ClCc1cccc2c(CCl)cccc12 | 2.83 | 16.6 | 4.18 | 19.1 | 4.49 | > 100 | 3.24 | 10.2 | 1.55 | 3.48 | 0.767 | 2.65 | 2.83 | 16.3 | 8.23 | 21.4 | 21.2 | > 100 | 3.47 | 32.2
CN(CCO)CC[C@H](CSc1ccccc1)Nc1ccc(S(=O)(=O)NC(=O)c2ccc(N3CCC([C@@H](O)c4ccccc4-c4ccc(Cl)cc4)CC3)cc2)cc1S(=O)(=O)C(F)(F)F | 20.4 | > 100 | 2.26 | 6.8 | 0.886 | 8.1 | 5.9 | 35.5 | 3.18 | 13.8 | 4.74 | 19.9 | 4.4 | > 72.9 | 1.69 | 3.25 | 4.98 | 20.7 | 2.99 | 11.5
CSC(=Nc1nnc(-c2ccc([N+](=O)[O-])cc2)s1)SC |  | > 100 |  | > 83.7 |  | > 100 |  | 53.3 |  | > 100 |  | > 100 |  | 99.2 |  | > 100 |  | 62.4 |  | > 100
COC(=O)C1CC23CCCN4CCC5(c6ccccc6N(C=O)C15CC2)C43 (stereo not given) |  | > 100 |  | > 100 |  | > 100 |  | > 100 |  | > 100 |  | > 100 |  | > 100 |  | > 100 |  | > 100 |  | > 100
O=[N+]([O-])c1ccc(C[P+](c2ccccc2)(c2ccccc2)c2ccccc2)cc1 |  | > 100 |  | > 100 |  | > 100 |  | > 100 |  | > 100 |  | > 100 |  | > 100 |  | > 100 |  | > 100 |  | > 100
COc1ccc(-c2nn(-c3cccc(Cl)c3)cc2-c2cc(-c3cccs3)[nH]c(=S)n2)cc1 | 1.93 | 21.7 | 2.38 | 11.2 | 3.49 | 13.2 | 7.14 | 22.1 | 3.67 | 14.4 | 3.01 | 11 | 2.54 | 8.86 | 2.93 | 10.9 | 5.91 | 36.8 | 3.92 | > 100
CCN1C(=O)N(CC)C2C1NN=c1s/c(=C\c3cccc(F)c3)c(=O)n12 (stereo not given) | 0.657 | > 100 | 0.131 | > 100 | 0.0582 | 0.46 | 0.598 | > 100 | 0.0856 | > 100 | 0.217 | 15.1 | 0.228 | 33.2 | 0.131 | 2.33 | 2.59 | > 100 | 0.38 | > 100
CCN(Cc1ccc(Cl)cc1)c1ccc(CO)c(Cl)c1 | 12.4 | 29.1 | 0.129 | 3.77 | 3.17 | 20.8 | 1.24 | 13.9 | 11.8 | 25.6 | 0.348 | 10.9 | 7.55 | 22.6 | 2.58 | 13.2 | 2.6 | 12.9 | 4.35 | 19.3
COc1ccc(C23C(=O)c4ccccc4N2O[C@H]2C(=O)N(c4ccccc4)C(=O)[C@H]23)cc1 (stereo not given in full) |  | > 100 |  | > 100 |  | > 100 |  | > 100 |  | > 100 |  | > 100 |  | 87.3 |  | > 100 |  | > 100 |  | > 100
COc1ncnc2c(-c3ccccc3)cn(COCc3ccccc3)c12 | 2.37 | > 100 | 2.67 | 23 | 3.22 | 18.1 | 5.78 | 87.6 | 3.1 | 19.9 | 3.54 | 23 | 2.09 | 6.17 | 1.13 | 2.34 | 7.69 | > 100 | 3.12 | 30
N=C1C(c2nc3ccccc3s2)=C(O)CN1c1ccc(F)c(Cl)c1 | 48.5 | > 100 | 24.2 | > 100 | > 100 | > 100 | 18.1 | 36.2 | 73.9 | > 100 | 17.5 | > 100 | 11.5 | 63.2 | 14.6 | 49.5 | 25.3 | > 100 | 34.6 | > 100
CCCCCCCCNc1cc2c3c(c1)CCCN3CCC2 | 0.559 | 15.3 | 1.11 | 7.92 | 0.33 | 1.85 | 4.04 | 18.3 | 1.63 | 10.6 | 2.66 | 9.18 | 0.594 | 6.47 | 1.49 | 3.14 | 2.36 | 7.96 | 2.56 | 14.7
O=C(O)CCC(=O)N1c2ccccc2CC1c1c[nH]c2ccccc12 (stereo not given) |  | > 100 |  | > 100 |  | > 100 |  | > 100 |  | > 100 |  | > 100 |  | > 100 |  | > 100 |  | > 100 |  | > 100
Cc1nnn[n-]1.N.N.N.N.N.[Cl-].[Co+3] | > 100 | > 100 | > 100 | > 100 | > 100 | > 100 | > 100 | > 100 | > 100 | > 100 | > 100 | > 100 | > 100 | > 100 | 1.86 | 10.7 | > 100 | > 100 | > 100 | > 100
O=C(Oc1cccc(F)c1OC(=O)c1cccc(O)c1)c1cccc(O)c1 | 58.7 | > 100 | 20.2 | > 100 | 4.28 | 72.3 | 50.7 | > 100 | 23.1 | > 100 | 11.6 | > 100 | 13.4 | 48.8 | 6.9 | > 100 | 84 | > 100 | 56.6 | > 100
